Laboratory results as given in patent publication US20080124813A1, “Bead-based radioimmunoassay” (Phoenix Pharmaceuticals, Inc., priority 2006, published 2008).
Values belong to the substance of their own block, whether it stands above or below them. No end group written: not given here.

Legend:
[1] = tested on: anti-ghrelin antibody; assay: Time course of I^125-ghrelin binding to anti-ghrelin antibody-conjugated bead; conditions: room temp (21° C.), 0-249 min, FIG. 3
Procedure: A particular embodiment of the immunoassay method for dissociable capture of radiolabeled ghrelin peptide by solid phase linked antibody can be performed as follows:
1. Combine 100 ul of I^125-ghrelin (specific activity 3.15 p mole/ml) prepared in accordance with Example 1.3 (Example 1 step 3) to each of eight aliquots of 50 μL antibody-conjugated beads and to each of two aliquots of 50 μL glycine-conjugated beads prepared in accordance with Example 2B suspended in stock solution (0.01 M Tris (pH 7.4), 0.1% NaN3, 0.1% w/v bovine serum albumin (BSA), 0.15M NaCl, and 0.001M EDTA.
2. Incubate antibody-conjugated beads at room temp (21° C.) for 0, 5, 10, 15, 30, 60, 120, and 249 min.
3. To each incubated mixture of antibody-conjugated beads and I^125-ghrelin add 1.5 ml RIA buffer (150 mM NaCl, 100 mM sodium phosphate, 1% BSA and 1% Triton X-100), mix, and centrifuge for 5 minutes at 17,000× g. Aspirate off the supernatant. 4. Wash once with 1 ml RIA buffer. Aspirate off the supernatant
5. Measure and record counts per minute for each assay tube.
The results shown are the means of duplicates. The counts from gamma counter represent the specific binding by anti-ghrelin antibody. The binding curve was generated using a non-linear least square fitting program in GraphPad Prism (version 2.01).

[2] = molecular target: insulysin (IDE) (Homo sapiens, UniProt P14735); assay: Peptide degradation by insulysin (IDE), read out by bead-based RIA; assay type: biochemical; conditions: for degradation kinetics with insulysin (IDE): 37° C., 0-15 min, means of duplicates, FIGS. 10 and 11
Description: Now referring primarily to FIGS. 10, 11 and 12 and Example 12, an embodiment of the inventive immunoassay system (1) allows for the coincident measurement of the degradation of a plurality of target particles (7) contained in the same immunoassay sample (6). […] Similarly, now referring to FIG. 11, the inventive immunoassay method can be used to determine the decreased concentration of amylin in an immunoassay sample (6) upon degradation by IDE.
1. Prepare separately solutions of 200 pg/mL of human glucagon (adjust with I^125-glucagon) and 40 pg/mL of human amylin (adjust with I^125-amylin) each in a total volume of 2 mL.
2. Prepare a digestion solution of insulysin (IDE) 6.2 μg in 3.1 mL of 0.15M NaCl, 25 mM Tris, pH7.5. Aliquote 0.4 mL to a tube for total of 12 tubes of digestion solution.
3. Add to the digestion solution with above 0.4 mL of human glucagon or amylin solution.
4. Incubate at 37° C. for a time interval at 15, 10, 7, 5, 3, 1 min and a tube without the incubation.
5. At the indicated time, add 40 μL protease inhibitor (bacitracin 2 mg/ml final concentration) and 300 μL of 10 mM ammonium chloride to stop the reaction.
6. Transfer 50 μL antibody conjugated bead prepared in accordance with Example 2B, 120 μL RIA buffer, 50 μl aprotinin and 80 μL of digested I^125-labeled peptide solution to 1 mL conical tube and incubate with agitation for 30 min.
7. Spin 5 min at 16000×g to pellet the beads and discard supernatant.
8. Add 1 mL of RIA buffer and centrifuge at 1700×g for 5 min.
9. Remove the supernatant and count the CPM of the pellet by gamma counter.

[3] = molecular target: anti-ghrelin antibody; assay: 150 μl small volume competitive radiolabeled ghrelin binding by bead-linked antibody (bead-based RIA); conditions: competition with I^125-ghrelin, total volume about 150 μl; stated as comparable to conventional RIA of Example 1
Procedure: A particular embodiment of the immunoassay method for competitive dissociable capture of radiolabeled ghrelin peptide by solid phase linked antibody to determine ghrelin peptide concentration in a 150 μl small volume immunoassay sample can be performed as follows:
1. Combine 25 μl of antibody conjugated beads in stock solution prepared in accordance with Example 2B to 50 μl human plasma or 50 μl standard solution.
2. Mix the resulting combination and incubate 6 hrs at 4° C.
3. Add 25 μl of I^125-ghrelin prepared in accordance with Example 1.3 and 50 μl RIA buffer.
4. Incubate 16-18 hrs. at 4° C.
5. Add 1.5 ml RIA buffer to incubated mixture and centrifuge for 5 minutes at 17,000× g. Aspirate off the supernatant (except total counts tubes). 6. Wash once with 1 ml RIA buffer. Aspirate off the supernatant (except total counts tubes).
7. Measure and record counts per minute for each assay tube.
The plasma concentration was interpolated from standard curves and indicate about 18.7 pg in 150 ul solution. The amounts of isotope labeled-ligands applied (as indicated in total counts tubes) was twice that of the conventional RIA described in Example 1. […] The total assay time was about 24 hours for this embodiment of the inventive immunoassay method. […]

[4] = molecular target: anti-ghrelin antibody; assay: 60 μl small volume competitive radiolabeled ghrelin binding by bead-linked antibody (bead-based RIA); conditions: competition with I^125-ghrelin, total volume about 60 μl; stated as comparable to conventional RIA of Example 1
Procedure: A particular embodiment of the immunoassay method for competitive dissociable capture of radiolabeled ghrelin peptide by solid phase linked antibody to determine ghrelin peptide concentration in a 60 μl small volume immunoassay sample can be performed as follows:
1. Combine 25 μl of antibody immobilized beads in stock solution prepared in accordance with Example 2B to about 25 μl human plasma or 10 μl-25 μl standard solution.
2. Mix resulting combination and incubate 6 hours at room temperature.
3. Add 10 μl 125I-peptide. Mix and incubate overnight (16-18 hrs.) at 4° C. 4. Add RIA buffer. Mix and centrifuge for 5 minutes at 1,700 g. Aspirate off the supernatant (except total count tubes). 5. Wash once with 1 ml RIA buffer. Aspirate off the supernatant (except total count tubes).
6. Measure and record counts per minute for each assay tube.
The plasma concentration was interpolated from standard curves and indicate about 18.7 pg in 150 μl solution. The amounts of isotope labeled-ligands applied (as indicated in total counts tubes) was twice that of the conventional RIA as described in Example 1. […]

Substance: I^125-ghrelin: I^125-labeled ghrelin peptide used as labeled particle (GSSFLSPEHQRVQQRKESKKPPAKLQPR; ends and bridges not checked; also: 125I label, position not given here; UniProt Q9UBU3 24-51, looked up)
time to saturation binding to antibody-conjugated beads [1]: two hour saturation binding

degradation kinetics with insulysin (IDE) [2]: pseudo-first order degradation
Substance: amylin (KCNTATCATQRLANFLVHSSNNFGAILSSTNVGSNTY; not fully specified (C-terminus, bridges); cysteine pairing not given here; also: 125I label, position not given here; UniProt P10997 34-70, looked up) [human amylin, human amylin, adjusted with I^125-amylin, digested with insulysin]

IC50 [3]: about 400 pg/ml | IC50 [4]: around 400 pg/ml
Substance: ghrelin (GSSFLSPEHQRVQQRKESKKPPAKLQPR; ends and bridges not checked; UniProt Q9UBU3 24-51, looked up) [human peptide ghrelin, 28 residues in the naturally occurring form; target particle of the immunoassay]

degradation kinetics with insulysin (IDE) [2]: pseudo-first order degradation | concentration in immunoassay sample upon degradation with insulysin ([2]; increasing duration of incubation with IDE at 37° C., FIG. 10): decreases
Substance: glucagon
